This note sets out measurements from the supplement of paper PMC11208160.
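Further: IS621 recombinase and bridge RNA in Escherichia coli cells.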

A short description of this data set: recombinant barcode read abundance after kanamycin selection (control-corrected) (log10(CPM+1)); higher = more efficient recombination; sequences stand for … in AGTGCAGAGAAAATCGGCCAGTTTTCTCTGCCTGCAGTCCGCATGCCGT…AGATTTATGCAGCGGACTGCCTTTCTCCCAAAGTGATAAACCGGACAGTATCATGGACCGGTTTTCCCGGTAATCCGTATTTGCAAGGTTGGTTTCACT; site = the 11-nt target. Summed up: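 Values are log10(CPM+1) from a pooled E. coli screen of targets paired with IS621 bridge RNA target-binding loops. Recombination efficiency here means counts per million of recombinant-junction barcodes, averaged and control-corrected. Plates were chloramphenicol/ampicillin LB agar for the control and chloramphenicol/ampicillin/kanamycin with 0.1 mM IPTG, two replicates each.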
For “TCCACAACTTGGGTTCTAACCTGTTGCCT (site TCCACACCTAG)”, the “recombinant barcode read abundance (log10)” value was determined as 0.122.

Consider “TCCACAACTTGGGTTCTAACCTGTTGCCT (site TCCACAGCTAG)”, for which the “recombinant barcode read abundance (log10)” value was found to be 0.283.

For “TCCACAACTTGGGTTCTAACCTGTTGCCT (site TCCACATCTAG)”, the “recombinant barcode read abundance (log10)” value turned out to be 0.193.

As for “TCCACATCTTGGGTTCTAACCTGTTGCCT (site TCCACAACTAG)”, the “recombinant barcode read abundance (log10)” value is 0.0262.

Turning to “TCCACATCTTGGGTTCTAACCTGTTGCCT (site TCCACACCTAG)”, the “recombinant barcode read abundance (log10)” value was 0.793.

Turning to “TCCACATCTTGGGTTCTAACCTGTTGCCT (site TCCACAGCTAG)”, the “recombinant barcode read abundance (log10)” value came out at 0.00992.

Regarding “TCCACATCTTGGGTTCTAACCTGTTGCCT (site TCCACATCTAG)”, the “recombinant barcode read abundance (log10)” value turned out to be 0.477.

Take “TCCATCCCTTGGGTTCTAACCTGTTGCTA (site TCCAGTCCTTA)”: the “recombinant barcode read abundance (log10)” value is 0.0637.

Take “TCCATCCCTTGGGTTCTAACCTGTTGCTA (site TCCATCCCTTA)”: the “recombinant barcode read abundance (log10)” value was 0.605.

“TCCCAGTCTTGGGTTCTAACCTGTTGCAT (site TCCCAGTCTAA)”: the “recombinant barcode read abundance (log10)” value came to 0.542.

On to “TCCCAGTCTTGGGTTCTAACCTGTTGCAT (site TCCCAGTCTAC)”, for which the “recombinant barcode read abundance (log10)” value came to 0.104.

For the sequence “TCCCAGTCTTGGGTTCTAACCTGTTGCAT (site TCCCAGTCTAG)”, the “recombinant barcode read abundance (log10)” value came to 0.242.

“TCCCAGTCTTGGGTTCTAACCTGTTGCAT (site TCCCAGTCTAT)”: the “recombinant barcode read abundance (log10)” value came to 1.88.

On to “TCCCAGTCTTGGGTTCTAACCTGTTGCCT (site TCCCAGTCTAA)”, for which the “recombinant barcode read abundance (log10)” value is 0.0986.

As to “TCCCAGTCTTGGGTTCTAACCTGTTGCCT (site TCCCAGTCTAC)”, the “recombinant barcode read abundance (log10)” value turned out to be 0.889.

“TCCCAGTCTTGGGTTCTAACCTGTTGCCT (site TCCCAGTCTAG)”: the “recombinant barcode read abundance (log10)” value was determined as 1.82.

For “TCCCAGTCTTGGGTTCTAACCTGTTGCCT (site TCCCAGTCTAT)”, the “recombinant barcode read abundance (log10)” value was 0.594.

Consider “TCCCAGTCTTGGGTTCTAACCTGTTGCGT (site TCCCAGTCTAA)”, for which the “recombinant barcode read abundance (log10)” value was 0.433.

As to “TCCCAGTCTTGGGTTCTAACCTGTTGCGT (site TCCCAGTCTAC)”, the “recombinant barcode read abundance (log10)” value amounted to 2.59.

As to “TCCCAGTCTTGGGTTCTAACCTGTTGCGT (site TCCCAGTCTAG)”, the “recombinant barcode read abundance (log10)” value is 0.375.

Take “TCCCAGTCTTGGGTTCTAACCTGTTGCGT (site TCCCAGTCTAT)”: the “recombinant barcode read abundance (log10)” value was found to be 1.6.

“TCCCAGTCTTGGGTTCTAACCTGTTGCTT (site TCCCAGTCTAA)”: the “recombinant barcode read abundance (log10)” value was found to be 0.681.

“TCCCAGTCTTGGGTTCTAACCTGTTGCTT (site TCCCAGTCTAC)”: the “recombinant barcode read abundance (log10)” value amounted to 0.0373.

For “TCCCAGTCTTGGGTTCTAACCTGTTGCTT (site TCCCAGTCTAG)”, the “recombinant barcode read abundance (log10)” value turned out to be 0.684.

Take “TCCCAGTCTTGGGTTCTAACCTGTTGCTT (site TCCCAGTCTAT)”: the “recombinant barcode read abundance (log10)” value stood at 1.19.

For “TCCCATACTTGGGTTCTAACCTGTTGCCT (site TCCCATACTAG)”, the “recombinant barcode read abundance (log10)” value is 0.493.

On to “TCCCATACTTGGGTTCTAACCTGTTGCCT (site TCCCATCCTAG)”, for which the “recombinant barcode read abundance (log10)” value came out at 0.33.

For “TCCCATACTTGGGTTCTAACCTGTTGCCT (site TCCCATGCTAG)”, the “recombinant barcode read abundance (log10)” value is 0.109.

As to “TCCCATACTTGGGTTCTAACCTGTTGCCT (site TCCCATTCTAG)”, the “recombinant barcode read abundance (log10)” value turned out to be 0.0766.

In the case of “TCCCCGGCTTGGGTTCTAACCTGTTGCCT (site TACCCGCCTAG)”, the “recombinant barcode read abundance (log10)” value came to 0.0487.

Turning to “TCCCCGGCTTGGGTTCTAACCTGTTGCCT (site TCCCCGGCTAG)”, the “recombinant barcode read abundance (log10)” value came to 0.285.

On to “TCCCGAACTTGGGTTCTAACCTGTTGCCT (site TCCCGAACTAG)”, for which the “recombinant barcode read abundance (log10)” value amounted to 0.598.

On to “TCCCGAACTTGGGTTCTAACCTGTTGCCT (site TCCCGACCTAG)”, for which the “recombinant barcode read abundance (log10)” value stood at 0.337.

As for “TCCCGAACTTGGGTTCTAACCTGTTGCCT (site TCCCGAGCTAG)”, the “recombinant barcode read abundance (log10)” value was determined as 0.173.

As to “TCCCGAACTTGGGTTCTAACCTGTTGCCT (site TCCCGATCTAG)”, the “recombinant barcode read abundance (log10)” value is 0.0125.

“TCCCGTCCTTGGGTTCTAACCTGTTGCCT (site TCCCGTCCTAG)”: the “recombinant barcode read abundance (log10)” value was 0.636.

“TCCCGTCCTTGGGTTCTAACCTGTTGCCT (site TCCCTTCCTAG)”: the “recombinant barcode read abundance (log10)” value was found to be 0.196.

On to “TCCGACACTTGGGTTCTAACCTGTTGCCT (site TACGACACTAG)”, for which the “recombinant barcode read abundance (log10)” value amounted to 0.227.

In the case of “TCCGACACTTGGGTTCTAACCTGTTGCCT (site TCCGACACTAG)”, the “recombinant barcode read abundance (log10)” value was found to be 1.95.

As to “TCCGAGACTTGGGTTCTAACCTGTTGCGT (site TCCGAGACTAC)”, the “recombinant barcode read abundance (log10)” value came to 1.56.

For “TCCGAGACTTGGGTTCTAACCTGTTGCGT (site TTCGAAACTAC)”, the “recombinant barcode read abundance (log10)” value came to 0.226.

Take “TCCGAGCCTTGGGTTCTAACCTGTTGCGT (site TCCGAGCCTAC)”: the “recombinant barcode read abundance (log10)” value is 2.18.

“TCCGAGCCTTGGGTTCTAACCTGTTGCGT (site TCCGAGCCTAT)”: the “recombinant barcode read abundance (log10)” value is 1.03.

As for “TCCGAGGCTTGGGTTCTAACCTGTTGCTG (site TCAGAGGCTCA)”, the “recombinant barcode read abundance (log10)” value was found to be 0.266.

On to “TCCGAGGCTTGGGTTCTAACCTGTTGCTG (site TCCGAGGCTCA)”, for which the “recombinant barcode read abundance (log10)” value turned out to be 0.739.

As for “TCCGAGGCTTGGGTTCTAACCTGTTGCTG (site TCGGAGGCTCA)”, the “recombinant barcode read abundance (log10)” value came to 0.521.

As for “TCCGAGGCTTGGGTTCTAACCTGTTGCTG (site TCTGAGGCTCA)”, the “recombinant barcode read abundance (log10)” value amounted to 0.241.

For the sequence “TCCGATACTTGGGTTCTAACCTGTTGCGT (site GTGTGGCCTTG)”, the “recombinant barcode read abundance (log10)” value is 0.11.

“TCCGATACTTGGGTTCTAACCTGTTGCGT (site TCCGATACTAC)”: the “recombinant barcode read abundance (log10)” value was 1.64.

On to “TCCGGCGCTTGGGTTCTAACCTGTTGCGG (site CTTACTACTTG)”, for which the “recombinant barcode read abundance (log10)” value was 0.0112.

As to “TCCGGCGCTTGGGTTCTAACCTGTTGCGG (site TCCGGCGCTCC)”, the “recombinant barcode read abundance (log10)” value was determined as 1.75.

With “TCCGTATCTTGGGTTCTAACCTGTTGCAG (site GAGTGGCCTTC)”, the “recombinant barcode read abundance (log10)” value was 0.16.

In the case of “TCCGTATCTTGGGTTCTAACCTGTTGCAG (site TCCGTATCTCT)”, the “recombinant barcode read abundance (log10)” value is 1.05.

As for “TCCGTCCCTTGGGTTCTAACCTGTTGCAT (site TCCGACCCTGT)”, the “recombinant barcode read abundance (log10)” value amounted to 0.0832.

In the case of “TCCGTCCCTTGGGTTCTAACCTGTTGCAT (site TCCGTCCCTAT)”, the “recombinant barcode read abundance (log10)” value amounted to 1.4.

For “TCCGTGACTTGGGTTCTAACCTGTTGCCT (site TCCGTGACTAG)”, the “recombinant barcode read abundance (log10)” value turned out to be 2.07.

On to “TCCGTGACTTGGGTTCTAACCTGTTGCCT (site TCCGTGCCTAG)”, for which the “recombinant barcode read abundance (log10)” value worked out at 0.

Turning to “TCCGTGACTTGGGTTCTAACCTGTTGCCT (site TCCGTGGCTAG)”, the “recombinant barcode read abundance (log10)” value is 0.436.

In the case of “TCCGTGACTTGGGTTCTAACCTGTTGCCT (site TCCGTGTCTAG)”, the “recombinant barcode read abundance (log10)” value was 0.352.
